# Measurements taken from patent publication US7652029B2, “Therapeutic compound and treatments” (priority 2004, dated 2010).
# What was measured:
# A549/ATCC = assay: NCI multiple cell line test (SRB); type: cell-based, human; details: A549/ATCC (Non-Small Cell Lung Cancer), 48 h
# SK-MEL-2 = assay: NCI multiple cell line test (SRB); type: cell-based, human; details: SK-MEL-2 (Melanoma), 48 h
# CCRF-CEM = assay: NCI multiple cell line test (SRB); type: cell-based, human; details: CCRF-CEM (Leukemia), 48 h
# M14 = assay: NCI multiple cell line test (SRB); type: cell-based, human; details: M14 (Melanoma), 48 h
# Experimental: (§1) The NCI tested MT477 60 cell line test, and reported the GI50, TGI, and LC50 values of MT477 for each cell line, reported herein at Table 3.
# (§2) Methodology: The NCI conducted a test of the MT477 drug against about 60 human cell lines, with a minimum of five concentrations of MT477 at 10-fold dilutions, with no more than 5(10)^−5 molar of drug being used. A 48 hour continuous drug exposure was used, and a sulforhodamine B (SRB) protein assay was used to estimate cell viability and growth. The human tumor cell lines of the cancer screening panel were grown in RPMI 1640 medium containing 5% fetal bovine serum and 2 mM L-glutamine. Cells were inoculated into 96 well microtiter plates in 100 μL at plating densities ranging from 5,000 to 40,000 cells/well depending on the doubling time of individual cell lines. After cell inoculation, the microtiter plates are incubated at 37° C., 5% CO2, 95% air, and 100% relative humidity for 24 h prior to addition of experimental drugs.
# (§3) After 24 h, two plates of each cell line were fixed in situ with TCA, to represent a measurement of the cell population for each cell line at the time of drug addition (Tz). MT477 was solubilized in dimethyl sulfoxide at 400-fold the desired final maximum test concentration and stored frozen prior to use. At the time of drug addition, an aliquot of frozen concentrate was thawed and diluted to twice the desired final maximum test concentration with complete medium containing 50 μg/ml gentamicin. Additional four, 10-fold or ½ log serial dilutions were made to provide a total of five drug concentrations plus control. Aliquots of 100 μl of these different drug dilutions were added to the appropriate microtiter wells already containing 100 μl of medium, resulting in the required final drug concentrations.
# (§4) Following drug addition, the plates were incubated for an additional 48 h at 37° C., 5% CO2, 95% air, and 100% relative humidity. For adherent cells, the assay was terminated by the addition of cold TCA. Cells were fixed in situ by the gentle addition of 50 μl of cold 50% (w/v) TCA (final concentration, 10% TCA) and incubated for 60 minutes at 4° C. The supernatant was discarded, and the plates were washed five times with tap water and air dried. Sulforhodamine B (SRB) solution (100 μl) at 0.4% (w/v) in 1% acetic acid was added to each well, and plates were incubated for 10 minutes at room temperature. After staining, unbound dye was removed by washing five times with 1% acetic acid and the plates were air-dried. Bound stain was subsequently solubilized with 10 mM trizma base, and the absorbance was read on an automated plate reader at a wavelength of 515 nm. For suspension cells, the methodology was the same except that the assay was terminated by fixing settled cells at the bottom of the wells by gently adding 50 μl of 80% TCA (final concentration, 16% TCA). Using the seven absorbance measurements (time zero, (Tz), control growth, (C), and test growth in the presence of drug at the five concentration levels (Ti)), the percentage growth was calculated at each of the drug concentrations levels. Percentage growth inhibition was calculated as: [(Ti−Tz)/(C−Tz)]×100 for concentrations for which Ti>/=Tz [(Ti−Tz)/Tz]×100 for concentrations for which Ti<Tz.
# (§5) Three dose response parameters were calculated for each experimental agent. Growth inhibition of 50% (GI50) was calculated from [(Ti−Tz)/(C−Tz)]×100=50, which is the drug concentration resulting in a 50% reduction in the net protein increase (as measured by SRB staining) in control cells during the drug incubation. The drug concentration resulting in total growth inhibition (TGI) was calculated from Ti=Tz. The LC50 (concentration of drug resulting in a 50% reduction in the measured protein at the end of the drug treatment as compared to that at the beginning) indicating a net loss of cells following treatment was calculated from [(Ti−Tz)/Tz]×100=−50. […]
# HL-60 (TB) = assay: NCI multiple cell line test (SRB); type: cell-based, human; details: HL-60 (TB) (Leukemia), 48 h
# Experimental: as §1, §2, §3, §4, §5
# NCI-H322M = assay: NCI multiple cell line test (SRB); type: cell-based, human; details: NCI-H322M (Non-Small Cell Lung Cancer), 48 h
# Experimental: as §1, §2, §3, §4, §5
# SF-295 = assay: NCI multiple cell line test (SRB); type: cell-based, human; details: SF-295 (CNS Cancer), 48 h
# [1] = tested on: human endothelial vein cells (HUVECs); assay: Growth response, MTT dye conversion assay; type: cell-based; details: FIG. 6; 48 hours; compared with cisplatin
# SNB-19 = assay: NCI multiple cell line test (SRB); type: cell-based, human; details: SNB-19 (CNS Cancer), 48 h
# TK-10 = assay: NCI multiple cell line test (SRB); type: cell-based, human; details: TK-10 (Renal Cancer), 48 h
# MDA-MB-231/ATCC = assay: NCI multiple cell line test (SRB); type: cell-based, human; details: MDA-MB-231/ATCC (Breast Cancer), 48 h
# PC-3 = assay: NCI multiple cell line test (SRB); type: cell-based, human; details: PC-3 (Prostate Cancer), 48 h
# ACHN = assay: NCI multiple cell line test (SRB); type: cell-based, human; details: ACHN (Renal Cancer), 48 h
# [2] = Homo sapiens, read-out: −log10GI50 (converted)
smiles,measurement,setting,value
COC(=O)C1=C(C(=O)OC)SC2(S1)C(C(=O)OC)=C(C(=O)OC)SC1=C2c2cccc(OC)c2N(C(=O)CN2C(=O)CCC2=O)C1(C)C [MT477],−log10LC50,A549/ATCC,* (effect not reached at maximum dose of 0.05 millimolar)
same,−log10TGI,A549/ATCC,4.77 molar
same,IC50,A549/ATCC; [2],3.8 µM
same,IC50,SK-MEL-2; [2],4.68 µM
same,−log10LC50,SK-MEL-2,* (effect not reached at maximum dose of 0.05 millimolar)
same,−log10TGI,SK-MEL-2,4.41 molar
same,−log10LC50,CCRF-CEM,* (effect not reached at maximum dose of 0.05 millimolar)
same,−log10TGI,CCRF-CEM,* (effect not reached at maximum dose of 0.05 millimolar)
same,IC50,CCRF-CEM; [2],3.24 µM
same,−log10GI50,M14,602 molar
same,−log10LC50,HL-60 (TB),* (effect not reached at maximum dose of 0.05 millimolar)
same,−log10TGI,HL-60 (TB),4.83 molar
same,IC50,HL-60 (TB); [2],2.19 µM
same,IC50,NCI-H322M; [2],6.46 µM
same,−log10TGI,NCI-H322M,4.87 molar
same,IC50,SF-295; [2],9.55 µM
same,−log10LC50,SF-295,* (effect not reached at maximum dose of 0.05 millimolar)
same,−log10TGI,SF-295,4.56 molar
same,cytotoxicity profile (growth response),[1],cytotoxicity profile that is similar to cisplatin
same,IC50,SNB-19; [2],7.94 µM
same,−log10LC50,SNB-19,4.46 molar
same,−log10TGI,SNB-19,4.78 molar
same,IC50,TK-10; [2],1.58 µM
same,−log10LC50,TK-10,4.75 molar
same,−log10TGI,TK-10,5.34 molar
same,IC50,MDA-MB-231/ATCC; [2],0.851 µM
same,−log10LC50,MDA-MB-231/ATCC,5.46 molar
same,−log10TGI,MDA-MB-231/ATCC,5.76 molar
same,IC50,PC-3; [2],1.45 µM
same,−log10LC50,PC-3,4.64 molar
same,−log10TGI,PC-3,5.35 molar
same,−log10LC50,ACHN,5.5 molar
same,−log10TGI,ACHN,5.77 molar
same,IC50,ACHN; [2],0.891 µM
